Reference: paper PMC10672241, “New Cyclopiane Diterpenes and Polyketide Derivatives from Marine Sediment-Derived Fungus Penicillium antarcticum KMM 4670 and Their Biological Activities” (Marine Drugs, 2023)
Where two headings read alike, the source gives them in different places.

Legend:
Candida albicans KMM 455 = test: Antimicrobial activity: C. albicans growth (OD620, 96-well broth); assay type: cell-based; conditions: for inhibition at 12.5 µM: KMM455, 12.5 µM
Protocol: (§1) The yeast-like fungi of Candida albicans KMM 455 and bacterial strains Staphylococcus aureus ATCC 21027 and Escherichia coli VKPM (B-7935) (Collection of Marine Microorganisms PIBOC FEB RAS) were cultured on solid medium Mueller Hinton broth with agar (16.0 g/L) in a Petri dish at 37 °C for 24 h.
(§2) The assays were performed in 96-well microplates in appropriate Mueller Hinton broth. Each well contained 90 µL of bacterial or of yeast-like fungi suspension (10^9 CFU/mL). Then, 10 µL of a compound diluted at concentrations from 1.5 µM to 100.0 µM using two-fold dilution were added (DMSO concentration <1%). Culture plates were incubated for 18 h at 37 °C, and the OD620 was measured using a Multiskan FS spectrophotometer (Thermo Scientific Inc., Beverly, MA, USA). The antibiotic gentamicin and the antifungal agent nitrofungin were used as positive controls at 1 mg/mL; 1% DMSO in PBS served as a negative control.

[1] = test system: Escherichia coli VKPM (B-7935); test: Antimicrobial activity: E. coli growth (OD620, 96-well broth); assay type: cell-based
Protocol: as §1, §2

H9c2 cardiomyocytes = test: H9c2 cell viability (MTT) assay; assay type: cell-based, rat; conditions: for Cell Viability: 24 h, MTT; for toxicity toward normal cardiomyocytes: at the concentrations in which they affected the growth of microorganisms
Protocol: (§3) The rat cardiomyocytes H9c2 cells were kindly provided by Prof. Dr. Gunhild von Amsberg from Martini-Klinik Prostate Cancer Center, University Hospital Hamburg-Eppendorf, Hamburg, Germany.
(§4) The H9c2 cells were cultured in DMEM medium (Biolot, St. Petersburg, Russia) containing 10% fetal bovine serum (Biolot, St. Petersburg, Russia) and 1% penicillin/streptomycin (Biolot, St. Petersburg, Russia) at 37 °C in a humidified atmosphere with 5% (v/v) CO2.
(§5) The H9c2 cells were seeded at concentrations of 3 × 10^3 cell/well, and the experiments were started after 24 h. The compounds at concentrations up to 100 µM were added into the wells for 24 h, and the viability of the cells was measured with an MTT (3-(4,5-dimethylthiazol-2-yl)-2,5-diphenyltetrazolium bromide) assay, which was performed according to the manufacturer’s instructions (Sigma-Aldrich, Munich, Germany). All compounds were dissolved with DMSO so that the final concentration of DMSO in the cell culture was not more than 1%. Moreover, DMSO was used as a control. The results were presented as a percent of the control data and calculated IC50.

[2] = H9c2 cell viability (MTT) assay; assay type: cell-based, rat; conditions: rat, H9c2 cardiomyocytes, 24 h, MTT
Protocol: as §3, §4, §5

[3] = test system: S. aureus biofilm formation; test: Crystal violet biofilm formation assay, S. aureus; assay type: cell-based, Staphylococcus aureus; conditions: for IC50: Staphylococcus aureus, read-out: half-maximal concentration (IC50) of the biofilm formation inhibition; for prevention of the biofilm formation of S. aureus: concentration not given
Protocol: (§6) The inhibition reducing biofilm formation and growth was assessed using the crystal violet biofilm assay as described. Overnight cultures of bacteria S. aureus and E. coli and yeast-like fungi C. albicans were inoculated into Mueller–Hinton broth at a concentration of 10^9 CFU/mL. A total of 90µL of this cell suspension was then dispensed into 96-well microtiter plates containing 10 µL of different concentrations of compounds 1–6. After 24 h growth at 37 °C, the plates were washed with PBS to remove unbound cells. Next, the wells were stained with 0.1% crystal violet solution for 10 min at 37 °C. At the completion of the incubation, plates were washed 3 times with PBS and dried. Then, the crystal violet dye from the biofilm was solubilized with 100 µL of ethanol. A total of 100 µL of this solution was then moved to a new microtiter plate for absorbance measurement at λ = 570 nm. The results were reported as percent inhibition normalized to the wild-type control.

sortase A from S. aureus = target: T1, sortase A from S. aureus (Staphylococcus aureus, UniProt Q2FV99); test: Sortase A activity inhibition assay (SensoLyte 520 kit, cell-free); assay type: biochemical; conditions: for inhibition at 50 µM: read-out: inhibition of sortase A activity, 50 µM, after 10 min of incubation; for inhibition of sortase A activity: 50 µM, after 10 min of incubation
T1 construct: purchased AnaSpec AS-72229
T1 sequence (Q2FV99 whole entry): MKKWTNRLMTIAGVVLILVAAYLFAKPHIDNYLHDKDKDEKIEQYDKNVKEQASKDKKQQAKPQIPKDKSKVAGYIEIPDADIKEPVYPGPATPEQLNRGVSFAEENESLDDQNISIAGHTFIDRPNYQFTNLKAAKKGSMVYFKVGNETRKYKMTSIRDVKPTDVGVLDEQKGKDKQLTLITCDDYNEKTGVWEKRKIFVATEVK
Protocol: The enzymatic activity of sortase A from S. aureus was determined using SensoLyte 520 Sortase A Activity Assay Kit Fluorimetric (AnaSpec AS-72229, AnaSpec, San Jose, CA, USA) in accordance with the manufacturer’s instructions. […] DMSO at a concentration of 0.8% was used as a control. 4-(Hydroxymercuri)benzoic acid (PCMB) was used as sortase A enzyme activity inhibitor. Fluorescence was measured with a plate reader PHERAStar FS (BMG Labtech, Offenburg, Germany) for 60 min, with a time interval of 5 min. The data were processed with MARS Data Analysis v. 3.01R2 (BMG Labtech, Offenburg, Germany). The results were presented as relative fluorescent units (RFUs) and percentage of the control data, calculated using STATISTICA 10.0 software.

[4] = test system: Staphylococcus aureus ATCC 21027; test: Antimicrobial activity: S. aureus growth (OD620, 96-well broth); assay type: cell-based; conditions: for inhibition at 12.5 µM / inhibition at 100 µM: Staphylococcus aureus; for inhibition at 12.5 µM: ATCC21027, 12.5 µM; for inhibition at 100 µM: ATCC21027, 100 µM
Protocol: as §1, §2

Escherichia coli [5] = test system: Escherichia coli; design: method as in PMID 31226283; conditions: bacterial suspension 10^6 CFU per milliliter; cited from earlier work
Escherichia coli [6] = test: Literature antibacterial activity against Escherichia coli; assay type: cell-based; conditions: calculated from 50 μg/mL
Staphylococcus aureus [7] = test system: Staphylococcus aureus; design: method as in PMID 31226283; conditions: bacterial suspension 10^6 CFU per milliliter; cited from earlier work
Staphylococcus aureus [8] = test: Literature antibacterial activity against Staphylococcus aureus; assay type: cell-based; conditions: calculated from 100 μg/mL
[9] = test system: C. albicans biofilm formation; test: Crystal violet biofilm formation assay, C. albicans; assay type: cell-based, Candida albicans; conditions: for inhibition of C. albicans biofilm formation: concentrations from 12.5 to 100 µM
Protocol: as §6

[10] = test system: E. coli biofilm formation; test: Crystal violet biofilm formation assay, E. coli; assay type: cell-based, Escherichia coli
Protocol: as §6

[11] = in vivo assay; cited from earlier work
[12] = concentrations from 12.5 to 100 µM

Compound	inhibition at 100 µM ([1]; Escherichia coli, 100 µM) [%]	viability at 24 h, 1 µM [2] [%]	viability at 24 h, 10 µM [2] [%]	viability at 24 h, 100 µM [2] [%]	prevention of S. aureus biofilm formation ([3]; 100 µM) [%]	inhibition at 50 µM (sortase A from S. aureus) [%]	inhibition at 12.5 µM [4] [%]	inhibition at 100 µM [4] [%]	inhibition of S. aureus growth ([4]; 12.5 µM)	inhibition at 12.5 µM ([1]; Escherichia coli, 12.5 µM) [%]	inhibition of C. albicans growth (Candida albicans KMM 455; [12])	inhibition of C. albicans biofilm formation [9]	other results
CC12CC(=O)C(C)(C)C1C1CCC3(C)C(=O)C=CC(C)(O)C13C2 (stereo not shown) [Compound 1, 4-hydroxyleptosphin C]	35.9	94.8 ± 5.9	65.7 ± 9.4	63.2 ± 0.5	34.5	28.2	15.3	29.3					inhibition at 12.5 µM (Candida albicans KMM 455; Candida albicans): 30.4%; inhibition of E. coli growth ([1]; 12.5 µM): not observed; decrease in H9c2 cell viability (H9c2 cardiomyocytes; 10 µM): ~30%; decrease of H9c2 viability (H9c2 cardiomyocytes; 100 µM): ~30%; prevention of S. aureus biofilm formation ([3]; 12.5 µM): 15.9%
CC1C=CC(=O)C2(C)CCC3C4C(C)(CC(O)C4(C)C)CC132 (stereo not drawn) [Compound 2, 13-epi-conidiogenone F]	27.3	98.1 ± 1.9	107 ± 7.8		52.6			19.1	no effect				inhibition at 12.5 µM (Candida albicans KMM 455; Candida albicans): 27.9%; inhibition of E. coli growth ([1]; 12.5 µM): not observed; decrease of H9c2 viability (H9c2 cardiomyocytes; 100 µM): ~30%; Cell Viability (H9c2 cardiomyocytes; 100 µM): 67.3 ± 3.1%; prevention of S. aureus biofilm formation ([3]; 12.5 µM): 37.9%; IC50 [3]: 76.1 µM; inhibition of sortase A activity (sortase A from S. aureus): 36.9%
CC1C=CC(=O)C2(C)CCC3C4C(C)(CC(O)C4(C)C)CC132 (stereo not shown) [Compound 3, conidiogenone F]									did not influence	24.3			concentration of antibacterial activity against Escherichia coli (Escherichia coli [5]): 50 µg/mL; inhibition of C. albicans growth (Candida albicans KMM 455; 12.5 µM): 26.5%; concentration at which activity was recorded (E. coli) (Escherichia coli [6]): 166 µM; inhibition of E. coli growth ([1]; 100 µM): 36.4%; Cell Viability (H9c2 cardiomyocytes; 1 µM): 103.3 ± 3.2%; Cell Viability (H9c2 cardiomyocytes; 10 µM): 92.9 ± 2.5%; Cell Viability (H9c2 cardiomyocytes; 100 µM): 109.7 ± 9.2%; concentration of antibacterial activity against Staphylococcus aureus (Staphylococcus aureus [7]): > 100 µg/mL; prevention of S. aureus biofilm formation ([3]; only at concentrations of 50 µM and 100 µM): 10–15%; inhibition of sortase A activity (sortase A from S. aureus): 13.1%; inhibition of S. aureus growth ([4]; 100 µM): 17.6%
CC1C=CC(=O)C2(C)CCC3C4C(C)(CC(=O)C4(C)C)CC132 (stereo not shown) [Compound 4, leptosphin C]	41.7	107 ± 2.9	102 ± 4.6	92.3 ± 1.9	54.5	20	10.3	42.4		7.2	38.7–44.8%	30.6–36.4%	concentration of antibacterial activity against Escherichia coli (Escherichia coli [5]): > 100 µg/mL; concentration at which activity was recorded (S. aureus) (Staphylococcus aureus [8]): 333 µM; effect on biofilm formation by C. albicans (in words) [9]: affected the biofilm formation; concentration of antibacterial activity against Staphylococcus aureus (Staphylococcus aureus [7]): 100 µg/mL; IC50 ([3]; S. aureus biofilm): 85.5 µM; effect on biofilm formation of E. coli (in words) [10]: affect the biofilm formation; prevention of E. coli biofilm formation ([10]; concentrations of 25–100 µM): 30–40%
C[C@H]1CCC[C@H](C[C@@H](O)CC(=O)O)O1 [Compound 5, antaketide A]	40.9	94.4 ± 3.1	88.5 ± 3.1	74.1 ± 4.9		25.5		48.5	did not show any influence	12.5	36.2–48.4%	did not affect	toxicity toward normal cardiomyocytes (H9c2 cardiomyocytes): significant toxicity; prevention of the biofilm formation of S. aureus [3]: 30–40%; effect on biofilm formation of E. coli (in words) [10]: affect the biofilm formation; prevention of E. coli biofilm formation ([10]; concentrations of 12.5–100 µM, respectively): 21–45%
C[C@H]1CCC[C@H](CC(=O)O)O1 [Compound 6, 2-((2R,6S)-6-methyltetrahydro-2H-pyran-2-yl)acetic acid]	56.9	98.1 ± 1.6	80.9 ± 2.9	54.6 ± 2.1		16.8	25.6	46.5		27.7	34.7-52.1%	14.7–23.1%	IC50 (Candida albicans KMM 455; Candida albicans, KMM455): 89.9 µM; IC50 ([1]; Escherichia coli, read-out: IC50 of E. coli growth inhibition): 84.9 µM; toxicity toward normal cardiomyocytes (H9c2 cardiomyocytes): significant toxicity; effect on biofilm formation by C. albicans (in words) [9]: affected the biofilm formation; prevention of the biofilm formation of S. aureus [3]: 30–40%
C[C@H]1CCC[C@H](C[C@H]2Cc3cc(O)cc(O)c3C(=O)O2)O1 [Compound 7, cladosporin]													clearance rate in the body [11]: high; oral bioavailability [11]: poor
